Source: patent US12485134B2, “Use of nicotinamide riboside, nicotinic acid riboside, reduced nicotinyl riboside compounds, and nicotinyl riboside compound derivatives in formulations” (ChromaDex Inc., priority 2019, dated 2025)

Columns and labels:
soy isolate proteins = assay: WaterLOGSY NMR binding of NR-Cl; settings: native vs denatured, pH 7.0
Procedure: (§1) WaterLOGSY is a sensitive ligand-observed NMR experiment designed for the screening of protein ligands from a mixture of potential binders. […] The experiment relies on fast dissociation of bound ligands to carry into the free state magnetisation originating from irradiated water that has been transmitted via the protein complex.
(§2) NMR samples for WaterLOGSY were prepared as follows. Ligand-detect WaterLOGSY experiments were carried at 600 MHz with 5-mm cryoprobe and using 5-mm NMR tubes. Each NMR sample for WaterLOGSY contained ˜0.05 mg (˜0.35 mM), using unlabeled ligand NR-Cl (“NR”), in a NMR buffer containing ˜0.5 mL 90% H2O/10% ^2H2O at pH 7.0 with or without the milk and soy protein mix (compared to the WaterLOGSY of NR as a negative control). Protein was added as a powder with a minimal 15 to 50 μM concentration. Typically, the final NMR sample of protein-compound mixtures had >20-fold higher compound concentration of ligand compared to that of the protein. Denatured samples were prepared by simply heating (80° C. for 15-20 mins) the aqueous (5-10% ^2H2O) protein mixture (in absence of NR).

[1] = Stability of NR-Cl in whey protein isolate solutions (% nicotinamide degradant, vs control of NR-Cl in water only); type: physicochemical; settings: for increase in nicotinamide: after 1 day at refrigerated conditions
Procedure: (§3) A. Solutions of hydrolyzed whey protein isolate (>90% protein, 2-7% degree of hydrolysis) were prepared at varying concentrations and filtered through 0.2 μm sterile filters. An aliquot of sterile nicotinamide riboside chloride (“NR-Cl,” a salt of NR, I) in water solution was spiked into the sterile whey solutions, targeting a final NR-Cl concentration of 1 mmol per liter (0.3 mg/mL). The solutions containing the mixture of hydrolyzed whey and NR-Cl were filtered through 10 kDa molecular weight cutoff centrifuge filters to remove the whey proteins (14-80 kDa) and any NR-Cl that was bound to the proteins. Any NR-Cl that was not bound to the whey proteins was recovered in the filtrate and quantitated by HPLC.
(§4) The solutions of hydrolyzed whey protein isolate and NR-Cl were stored at ambient and refrigerated conditions and analyzed at various timepoints for NR-Cl protein binding and stability.
(§5) A study measuring the stability of NR-Cl in hydrolyzed and non-hydrolyzed whey protein was conducted with 2 mmol/L NR-Cl (0.6 mg/mL) and 20 mg/mL protein (33.3:1 wt:wt protein:NR-Cl). […] (See Table 5).

[2] = system: hydrolyzed whey protein isolate; assay: NR-Cl binding to hydrolyzed whey protein isolate (10 kDa cutoff filtration, unbound NR-Cl in filtrate by HPLC)
Procedure: as §3, §4, §5

[3] = system: milk concentrate proteins; assay: WaterLOGSY NMR binding of NR-Cl; settings: pH 7.0
Procedure: as §1, §2
The NR only WaterLOGSY spectrum (FIG. 23) was the negative control to screen for any potential binding of NR-Cl to milk concentrate and soy isolate proteins as shown herein and discussed below.

[4] = system: non-hydrolyzed whey protein; assay: NR-Cl binding to non-hydrolyzed whey protein isolate (cutoff filter method); settings: Non-Hydrolyzed Whey Protein Isolate 20 mg/mL, 2 mmol/L NR-Cl (33.3:1 wt:wt)
Procedure: as §3, §5

Transferrin = Transferrin (Bos taurus, UniProt Q29443); assay: NR-Cl binding to individual whey proteins (cutoff filter method); settings: 1 mmol/L each of protein and NR-Cl
Procedure: as §3
(§6) The solutions were prepared with 1 mmol/L each of protein and NR-Cl. NR-Cl binding to one or more of these individual proteins could be responsible for the enhanced stability of NR-Cl seen in hydrolyzed whey protein isolate.

Lactoferrin = Lactoferrin (Bos taurus, UniProt P24627); assay: as above; settings: 1 mmol/L each of protein and NR-Cl
Procedure: as §3, §6

Alpha-lactalbumin = target: T1, Alpha-lactalbumin (Bos taurus, UniProt P00711); assay: as above; settings: 1 mmol/L each of protein and NR-Cl
T1 sequence (P00711 20-142): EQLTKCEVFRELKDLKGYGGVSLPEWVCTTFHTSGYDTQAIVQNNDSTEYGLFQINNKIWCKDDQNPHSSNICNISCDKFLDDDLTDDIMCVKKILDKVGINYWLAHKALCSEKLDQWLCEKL
Procedure: as §3, §6

[5] = Hydrolyzed Whey Protein Isolate 20 mg/mL, 2 mmol/L NR-Cl (33.3:1 wt:wt), 0 days refrigerated
[6] = Hydrolyzed Whey Protein Isolate 20 mg/mL, 2 mmol/L NR-Cl (33.3:1 wt:wt), 1 day refrigerated
[7] = hydrolyzed whey:NR-Cl 18.3:1 (wt:wt), 0 days ambient
[8] = hydrolyzed whey:NR-Cl 18.3:1 (wt:wt), 0 days refrigerated
[9] = hydrolyzed whey:NR-Cl 18.3:1 (wt:wt), 3 days ambient
[10] = hydrolyzed whey:NR-Cl 18.3:1 (wt:wt), 5 days ambient
[11] = hydrolyzed whey:NR-Cl 18.3:1 (wt:wt), 7 days ambient
[12] = hydrolyzed whey:NR-Cl 18.3:1 (wt:wt), 30 days refrigerated
[13] = hydrolyzed whey:NR-Cl 37:1 (wt:wt), 0 days ambient
[14] = hydrolyzed whey:NR-Cl 37:1 (wt:wt), 0 days refrigerated
[15] = hydrolyzed whey:NR-Cl 37:1 (wt:wt), 3 days ambient
[16] = hydrolyzed whey:NR-Cl 37:1 (wt:wt), 5 days ambient
[17] = hydrolyzed whey:NR-Cl 37:1 (wt:wt), 7 days ambient
[18] = hydrolyzed whey:NR-Cl 37:1 (wt:wt), 30 days refrigerated
[19] = hydrolyzed whey:NR-Cl 73:1 (wt:wt), 0 days ambient
[20] = hydrolyzed whey:NR-Cl 73:1 (wt:wt), 0 days refrigerated
[21] = hydrolyzed whey:NR-Cl 73:1 (wt:wt), 3 days ambient
[22] = hydrolyzed whey:NR-Cl 73:1 (wt:wt), 5 days ambient
[23] = hydrolyzed whey:NR-Cl 73:1 (wt:wt), 7 days ambient
[24] = hydrolyzed whey:NR-Cl 73:1 (wt:wt), 30 days refrigerated
[25] = hydrolyzed whey:NR-Cl 147:1 (wt:wt), 0 days ambient
[26] = hydrolyzed whey:NR-Cl 147:1 (wt:wt), 3 days ambient
[27] = hydrolyzed whey:NR-Cl 147:1 (wt:wt), 5 days ambient
[28] = hydrolyzed whey:NR-Cl 147:1 (wt:wt), 7 days ambient
[29] = hydrolyzed whey:NR-Cl 293:1 (wt:wt), 0 days ambient
[30] = hydrolyzed whey:NR-Cl 293:1 (wt:wt), 3 days ambient
[31] = hydrolyzed whey:NR-Cl 293:1 (wt:wt), 7 days ambient

Transferrin, sequence (Q29443 20-704): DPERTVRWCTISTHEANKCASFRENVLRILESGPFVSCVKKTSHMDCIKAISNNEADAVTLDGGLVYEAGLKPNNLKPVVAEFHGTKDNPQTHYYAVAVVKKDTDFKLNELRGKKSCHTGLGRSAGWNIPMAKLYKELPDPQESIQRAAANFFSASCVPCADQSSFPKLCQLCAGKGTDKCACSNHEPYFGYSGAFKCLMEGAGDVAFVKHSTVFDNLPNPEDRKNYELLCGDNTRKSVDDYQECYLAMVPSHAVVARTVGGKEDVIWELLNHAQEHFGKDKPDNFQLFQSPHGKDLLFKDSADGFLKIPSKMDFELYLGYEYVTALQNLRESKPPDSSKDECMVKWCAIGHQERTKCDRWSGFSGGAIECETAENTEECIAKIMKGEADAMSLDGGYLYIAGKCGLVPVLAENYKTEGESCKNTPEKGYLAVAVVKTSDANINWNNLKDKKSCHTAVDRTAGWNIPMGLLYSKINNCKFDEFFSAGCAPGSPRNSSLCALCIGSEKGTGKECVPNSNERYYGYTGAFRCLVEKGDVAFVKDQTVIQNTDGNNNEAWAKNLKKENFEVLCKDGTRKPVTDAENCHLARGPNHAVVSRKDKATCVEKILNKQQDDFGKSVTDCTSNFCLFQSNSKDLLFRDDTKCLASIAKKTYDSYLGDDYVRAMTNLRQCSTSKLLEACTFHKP
Lactoferrin, sequence (P24627 20-708): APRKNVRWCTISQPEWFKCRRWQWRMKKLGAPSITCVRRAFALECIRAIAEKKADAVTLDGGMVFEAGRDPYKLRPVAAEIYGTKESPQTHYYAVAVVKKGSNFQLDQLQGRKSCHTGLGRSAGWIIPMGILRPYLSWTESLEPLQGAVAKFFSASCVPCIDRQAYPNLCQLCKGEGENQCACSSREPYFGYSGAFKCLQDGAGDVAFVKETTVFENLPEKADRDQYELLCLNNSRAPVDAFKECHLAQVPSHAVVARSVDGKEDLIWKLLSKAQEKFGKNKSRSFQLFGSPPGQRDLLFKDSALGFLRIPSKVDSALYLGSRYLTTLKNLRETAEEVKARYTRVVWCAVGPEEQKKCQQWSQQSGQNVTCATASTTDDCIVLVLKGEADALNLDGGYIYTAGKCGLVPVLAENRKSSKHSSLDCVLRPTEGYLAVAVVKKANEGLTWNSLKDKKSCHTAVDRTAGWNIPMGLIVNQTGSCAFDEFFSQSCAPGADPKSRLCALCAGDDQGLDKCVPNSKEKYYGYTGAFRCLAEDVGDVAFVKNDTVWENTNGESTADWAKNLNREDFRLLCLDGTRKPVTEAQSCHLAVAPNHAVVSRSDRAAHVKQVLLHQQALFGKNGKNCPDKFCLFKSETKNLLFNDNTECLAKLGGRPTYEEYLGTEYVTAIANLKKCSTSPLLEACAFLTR

NC(=O)c1ccc[n+]([C@@H]2O[C@H](CO)[C@@H](O)[C@H]2O)c1.[Cl-] [NR-Cl, nicotinamide riboside chloride]
WaterLOGSY binding (soy isolate proteins): increase in binding with NR-Cl only after denaturation | % Nicotinamide ([1]; Control (NR-Cl in water only), 0 days ambient): 0.2% | % Nicotinamide ([1]; Control (NR-Cl in water only), 0 days refrigerated): 0.2% | % Nicotinamide ([1]; Control (NR-Cl in water only), 3 days ambient): 3.8% | % Nicotinamide ([1]; Control (NR-Cl in water only), 5 days ambient): 4.8% | % Nicotinamide ([1]; Control (NR-Cl in water only), 7 days ambient): 5.3% | % Nicotinamide ([1]; Control (NR-Cl in water only), 30 days refrigerated): 2.3% | % Nicotinamide [1, 5]: 0.1% | % Nicotinamide [1, 6]: 0.1% | % Nicotinamide ([1]; Non-Hydrolyzed Whey Protein Isolate 20 mg/mL, 2 mmol/L NR-Cl (33.3:1 wt:wt), 0 days refrigerated): 0.3% | % Nicotinamide ([1]; Non-Hydrolyzed Whey Protein Isolate 20 mg/mL, 2 mmol/L NR-Cl (33.3:1 wt:wt), 1 day refrigerated): 5.4% | increase in nicotinamide ([1]; hydrolyzed whey solution): did not show any increase | % Nicotinamide [1, 7]: 0.1% | % Nicotinamide [1, 8]: 0.1% | % Nicotinamide [1, 9]: 2.2% | % Nicotinamide [1, 10]: 3.3% | % Nicotinamide [1, 11]: 3.9% | % Nicotinamide [1, 12]: 1.5% | % Nicotinamide [1, 13]: 0.2% | % Nicotinamide [1, 14]: 0.2% | % Nicotinamide [1, 15]: 2.1% | % Nicotinamide [1, 16]: 3.1% | % Nicotinamide [1, 17]: 3.8% | % Nicotinamide [1, 18]: 1.4% | % Nicotinamide [1, 19]: 0.2% | % Nicotinamide [1, 20]: 0.2% | % Nicotinamide [1, 21]: 2.4% | % Nicotinamide [1, 22]: 3.2% | % Nicotinamide [1, 23]: 4.2% | % Nicotinamide [1, 24]: 1.6% | % Nicotinamide [1, 25]: 0.3% | % Nicotinamide [1, 26]: 2.4% | % Nicotinamide [1, 27]: 3.4% | % Nicotinamide [1, 28]: 4.1% | % Nicotinamide [1, 29]: 0.6% | % Nicotinamide [1, 30]: 2.8% | % Nicotinamide [1, 31]: 4.4% | increase in nicotinamide ([1]; non-hydrolyzed whey solution): 5% | fraction of NR-Cl bound to whey protein over the course of the experiments ([2]; 7 days ambient, 30 days refrigerated): remain stable | % NR-Cl Bound to Protein [2, 5]: 55% | % NR-Cl Bound to Protein [2, 6]: 56% | % NR-Cl Bound to Protein ([2]; hydrolyzed whey protein isolate:NR-Cl 18.3:1 (wt:wt), 1 mmol/L NR-Cl): 41% | % NR-Cl Bound to Protein ([2]; hydrolyzed whey protein isolate:NR-Cl 37:1 (wt:wt), 1 mmol/L NR-Cl): 47% | % NR-Cl Bound to Protein ([2]; hydrolyzed whey protein isolate:NR-Cl 73:1 (wt:wt), 1 mmol/L NR-Cl): 60% | % NR-Cl Bound to Protein ([2]; hydrolyzed whey protein isolate:NR-Cl 147:1 (wt:wt), 1 mmol/L NR-Cl): 65% | % NR-Cl Bound to Protein ([2]; hydrolyzed whey protein isolate:NR-Cl 293:1 (wt:wt), 1 mmol/L NR-Cl): 67% | % NR-Cl Bound to Protein [2, 7]: 41% | % NR-Cl Bound to Protein [2, 8]: 41% | % NR-Cl Bound to Protein [2, 9]: 44% | % NR-Cl Bound to Protein [2, 10]: 45% | % NR-Cl Bound to Protein [2, 11]: 43% | % NR-Cl Bound to Protein [2, 12]: 24% | % NR-Cl Bound to Protein [2, 13]: 47% | % NR-Cl Bound to Protein [2, 14]: 47% | % NR-Cl Bound to Protein [2, 15]: 55% | % NR-Cl Bound to Protein [2, 16]: 54% | % NR-Cl Bound to Protein [2, 17]: 54% | % NR-Cl Bound to Protein [2, 18]: 45% | % NR-Cl Bound to Protein [2, 19]: 60% | % NR-Cl Bound to Protein [2, 20]: 60% | % NR-Cl Bound to Protein [2, 21]: 66% | % NR-Cl Bound to Protein [2, 22]: 65% | % NR-Cl Bound to Protein [2, 23]: 65% | % NR-Cl Bound to Protein [2, 24]: 57% | % NR-Cl Bound to Protein [2, 25]: 65% | % NR-Cl Bound to Protein [2, 26]: 71% | % NR-Cl Bound to Protein [2, 27]: 72% | % NR-Cl Bound to Protein [2, 28]: 69% | % NR-Cl Bound to Protein [2, 29]: 67% | % NR-Cl Bound to Protein [2, 30]: 62% | % NR-Cl Bound to Protein [2, 31]: 72% | WaterLOGSY binding ([3]; denatured milk concentrate (80° C. for 15-20 mins)): decreased binding | WaterLOGSY binding ([3]; milk concentrate): evidence of positive binding | % NR-Cl Bound to Protein ([4]; 0 days refrigerated): 49% | % NR-Cl Bound to Protein ([4]; 1 day refrigerated): 54% | % NR-Cl Bound to Protein (Transferrin): 15% | % NR-Cl Bound to Protein (Lactoferrin): 28% | % NR-Cl Bound to Protein (Alpha-lactalbumin): 62%
